One series concerns the target urease (Canavalia ensiformis, UniProt P07374). Conditions: cited from earlier work.
The nature of series [1]: Thermogravimetric analysis and isothermal study under air. It is filed as physicochemical. The note with it: air atmosphere.
The conditions of series [2]: similar storage conditions; Soil Use and Management, 2008, 24, 246; cited from earlier work.
The conditions of series [3]: similar conditions; U.S. Pat. No. 10,640,430; cited from earlier work.

urease, sequence (P07374 whole entry, looked up): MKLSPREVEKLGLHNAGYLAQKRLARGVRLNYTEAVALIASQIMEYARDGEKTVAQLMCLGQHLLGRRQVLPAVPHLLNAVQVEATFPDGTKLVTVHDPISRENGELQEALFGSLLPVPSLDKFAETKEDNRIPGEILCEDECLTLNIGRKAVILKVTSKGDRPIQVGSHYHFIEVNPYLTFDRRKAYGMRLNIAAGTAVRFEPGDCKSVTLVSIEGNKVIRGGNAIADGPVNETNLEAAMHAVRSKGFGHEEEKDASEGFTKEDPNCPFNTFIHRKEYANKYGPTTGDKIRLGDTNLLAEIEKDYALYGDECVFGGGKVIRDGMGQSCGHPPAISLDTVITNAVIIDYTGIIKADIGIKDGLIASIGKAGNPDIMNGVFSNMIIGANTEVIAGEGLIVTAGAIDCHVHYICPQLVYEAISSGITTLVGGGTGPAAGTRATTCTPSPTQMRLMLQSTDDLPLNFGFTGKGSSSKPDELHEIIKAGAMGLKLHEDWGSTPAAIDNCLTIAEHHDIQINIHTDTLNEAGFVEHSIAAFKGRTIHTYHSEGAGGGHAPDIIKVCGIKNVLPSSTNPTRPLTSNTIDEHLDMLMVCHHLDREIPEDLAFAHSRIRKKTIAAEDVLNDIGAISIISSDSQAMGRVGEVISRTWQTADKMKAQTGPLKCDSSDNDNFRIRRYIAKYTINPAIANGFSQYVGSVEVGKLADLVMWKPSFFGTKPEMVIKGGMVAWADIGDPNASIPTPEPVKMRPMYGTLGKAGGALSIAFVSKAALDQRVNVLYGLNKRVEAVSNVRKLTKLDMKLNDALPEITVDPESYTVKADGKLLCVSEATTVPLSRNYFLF

`NP(N)(=O)Nc1ccccc1[N+](=O)[O-]`: at urease, the IC50 (as a rule, the concentration needed to halve the response being measured) was 3 nM. Turning to `Oc1cccc(-c2nc3ccccc3s2)c1` [BZT, 2-(3-Hydroxyphenyl) benzothiazole], in series [1] (140° C., 40 minutes), the “amount of BZT lost (isothermal study)” value is “about 0.26%”. The “onset of degradation (TGA)” value in series [1] stood at 255.1 °C. For `CCCCNP(N)(N)=S` [NBTPT, N-(n-butyl) thiophosphoric triamide], the storage stability entry in series [2] is reported as “unstable”. In series [3], the “degradation under urea melt conditions” value is recorded as “significant degradation”.

As to `CCCCNP(N)(N)=S` [drawing 22], the IC50 at urease was 100 nM.

Source of the values: patent publication US20240327311A1, “Benzothiazole Derivative as a Urease Inhibitor for Fertilizer Application” (Sabic Agri-Nutrients Company, priority 2021, published 2024).
